Test results from patent US4332802A, “11-Oxo-11H-pyrido[2,1-b]quinazoline-2-carboxylic acid and salts thereof, antiallergic compositions containing it and methods of suppressing allergic reactions with it” (Boehringer Ingelheim KG, priority 1975, dated 1982).
Where two headings read alike, the source gives them in different places.

What was measured:
[1] = system: anaphylactoid dextran reaction in the rat paw; test: Dextran edema test (anaphylactoid dextran reaction, paw swelling); type: in vivo; settings: for ED35: 0.5 h, rat, graphic extrapolation; for % Inhibition of swelling: rat paw, dextran, dose of 100 mgm/kg (p.o.)
Text: The antiallergic activity of the compounds of the present invention was ascertained and compared to that of structurally related known compounds by the anaphylactic dextran reaction method, where
Dextran induces in the rat a de-granulation of mast cells and thus the release of mediator substances such as histamine and serotonin, with consequent edema formation. The reaction manifests itself in a manner similar to anaphylaxis [see Morrison et al., J.exp.Med. 103, 399 (1956)].
Fasted male laboratory rats (Chbb:Thom.SPF) having a body weight of 120-180 gm were used as the test animals; they were initially kept in wire cages, and after provocation of the reaction on chaff. The allergic reaction was released by subplantar injection into the right hind paw of 100 μgm of dextran (mol. wt. 60,000) in 0.1 ml of physiological sodium chloride solution. The degree of inflammatory swelling was determined by dorso-plantar measurement of the thickness of the paw [see Doepfner et al., Int. Arch. Allergy 12, 89 (1958)] in 1/100 mm; swelling was defined as the difference between the paw thickness 30 minutes after the dextran injection and the paw thickness before the dextran injection. For the dextran injection and the paw thickness measurements the animal was placed under light general anesthesia with ether (etherrausch).
The test compound was administered shortly before release of the allergic reaction in sodium chloride solution i.v. (0.5 ml/100 gm body weight), or 10 minutes before in 1% tylose 2000 p.o. (1 ml/100 gm body weight). Control animals received only the vehicle.
From the raw data thus obtained the percentage of swelling inhibition was calculated from the average paw swelling in the treated animals (T) and in the control animals (K) in accordance with the formula [formula] By graphic extrapolation the dose of test compound was determined which produced a 35% reduction of the swelling (ED35). For graphic representation of percentage inhibition values the standard error (sx --) was determined according to Fenner, Naturwissenschaften 19, 310 (1931).
For the anaphylactoid dextran reaction in the rat paw the following values were obtained at a dose of 100 mgm/kg: […]

[2] = Absorption: quotient ED35 p.o./ED35 i.v. from the dextran edema test; settings: in vivo; rat; the smaller the quotient, the better the absorption
Text: For the efficacy of a pharmaceutical which is to be administered perorally, the absorption is of particular advantage. Conclusions regarding the absorption can be drawn from a comparison of the ED35 --values p.o. and i.v.; the smaller the quotient ED35 p.o./ED35 i.v., the better the absorption.

[3] = iv, i.v., shortly before dextran, sodium chloride solution, read-out: ED35 i.v. (dose producing 35% reduction of the swelling)
[4] = po, p.o., 10 minutes before dextran, 1% tylose, read-out: ED35 p.o. (dose producing 35% reduction of the swelling)

`O=C(O)c1ccc2nc3ccccn3c(=O)c2c1` [A, 11-Oxo-11H-pyrido[2,1-b]quinazoline-2-carboxylic acid] gave an ED35 [1, 3] of 2.1 mg/kg, an ED35 [1, 4] of 4 mg/kg and an ED35 p.o./i.v. ratio (absorption) [2] of 1.9.
In the case of `O=C(O)c1cccc2nc3ccccn3c(=O)c12` [B, 11-Oxo-11H-pyrido[2,1-b]quinazoline-1-carboxylic acid], the “% Inhibition of swelling” value [1] is reported as 0%.
With `O=C(O)c1cccc2c(=O)n3ccccc3nc12` [C, 11-Oxo-11H-pyrido[2,1-b]quinazoline-4-carboxylic acid] the “% Inhibition of swelling” value [1] was 10%.
In the case of `O=C(O)c1ccn2c(=O)c3ccccc3nc2c1` [D, 11-Oxo-11H-pyrido[2,1-b]quinazoline-7-carboxylic acid], the “% Inhibition of swelling” value [1] is reported as 38%.
With `O=C(O)c1ccc2nc3ccccc3c(=O)n2c1` [E, 11-Oxo-11H-pyrido[2,1-b]-quinazoline-8-carboxylic acid] the ED35 [1, 3] was 1.1 mg/kg, the ED35 [1, 4] was 4.4 mg/kg and the ED35 p.o./i.v. ratio (absorption) [2] was 4.
